Laboratory results published in patent publication US8895502B2, “β2-glycoprotein I peptide inhibitors” (Kansas State University Research Foundation, priority 2010, dated 2014).
Entries after “also recorded” stand apart in the source; their conditions may differ. Ends that are not written are not given here.

Tests used:
Format in all cases: in vivo, mouse
[1] = tested on: CD106 (VCAM-1); experiment: Intestinal IR, VCAM immunohistochemistry; settings: C57Bl/6 mice, peptide prior to IR, data not shown
Protocol: C57Bl/6 and Rag-1^−/− mice were subjected to ischemia followed by reperfusion similar to previously described studies (Moses, T. et al., J. Leukoc. Biol. 86:971-980 (2009)). Briefly, ketamine (16 mg/kg) and xylazine (80 mg/kg) were used to anesthetize the mice. Buprenorphine (0.06 mg/kg) was then administered for pain. A midline laparotomy was performed to expose the abdominal cavity of the mice, which were then allowed to equilibrate for 30 min. Body temperature was maintained at 37° C. using a water-circulating heat pad. Placing a warm, saline moistened piece of gauze over the abdominal cavity prevented peritoneal desiccation. […] Ischemia was noted by the intestine changing from a pink color to a gray color. After 30 min of ischemia, the clamp was removed and the intestines were allowed to reperfuse for 5, 10, 15, or 120 min. […] Mice treated with the various β2-GPI peptides underwent the same procedure with i.v. administration of the peptides (40 μM) 5 min prior to artery occlusion. Peptides 296, 305, and 296Cys to Ser were dissolved in N. Saline (0.9% NaCl) and injected i.v. in 100-μL volumes. […]
After euthanasia, an additional 2-cm intestinal section from each mouse was immediately snap frozen in O.C.T. freezing medium and 8 μm sections were placed on slides for immunohistochemistry. The C3 deposition and F4/80 expression on the tissue sections were detected by staining with a purified rat-anti-mouse C3 (Hycult Biotechnologies; Plymouth Meeting, Pa.) or F4/80 (eBioscience; San Diego, Calif.) antibody followed by a Texas-red conjugated donkey-anti-rat IgG secondary antibody (Jackson Immunoresearch). CD31 (PECAM-1) and CD106 (VCAM-1) were detected by FITC conjugated rat anti-mouse CD31 or CD106 (Biolegend; San Diego, Calif.) antibodies. […] Images were obtained at room temperature using a Nikon Eclipse 80i microscope equipped with a CoolSnap CF camera (Photometrics) and analyzed using Metavue software (Molecular Devices). The fluorescence was semi-quantitated using Image J software (NIH) using the fluorescent area fraction after setting threshold for each experiment. […]

[2] = tested on: F4/80; experiment: Intestinal IR, F4/80 macrophage marker immunohistochemistry; design: key to F4/80 Deposition: + indicates significant difference from Sham treated mice; − indicates not significantly different from C57B1/6 sham treated mice; +/− indicates no significant difference from either C57B1/6 mice subjected to either Sham or IR; settings: for F4/80 Deposition: C57Bl/6 mice subjected to IR, peptide 40 μM i.v. 5 min prior to artery occlusion; for expression of the mature macrophage marker (F4/80) after IR: C57Bl/6 mice, peptide prior to IR
Protocol: (§1) C57Bl/6 and Rag-1^−/− mice were subjected to ischemia followed by reperfusion similar to previously described studies (Moses, T. et al., J. Leukoc. Biol. 86:971-980 (2009)). Briefly, ketamine (16 mg/kg) and xylazine (80 mg/kg) were used to anesthetize the mice. Buprenorphine (0.06 mg/kg) was then administered for pain. A midline laparotomy was performed to expose the abdominal cavity of the mice, which were then allowed to equilibrate for 30 min. Body temperature was maintained at 37° C. using a water-circulating heat pad. Placing a warm, saline moistened piece of gauze over the abdominal cavity prevented peritoneal desiccation. […] Ischemia was noted by the intestine changing from a pink color to a gray color. After 30 min of ischemia, the clamp was removed and the intestines were allowed to reperfuse for 5, 10, 15, or 120 min. […] Mice treated with the various β2-GPI peptides underwent the same procedure with i.v. administration of the peptides (40 μM) 5 min prior to artery occlusion. Peptides 296, 305, and 296Cys to Ser were dissolved in N. Saline (0.9% NaCl) and injected i.v. in 100-μL volumes. Peptides 100 and 181 were dissolved in DMSO prior to diluting 1/100 in N. Saline. Additional mice received peptides prior to Sham treatment.
After euthanasia, an additional 2-cm intestinal section from each mouse was immediately snap frozen in O.C.T. freezing medium and 8 μm sections were placed on slides for immunohistochemistry. The C3 deposition and F4/80 expression on the tissue sections were detected by staining with a purified rat-anti-mouse C3 (Hycult Biotechnologies; Plymouth Meeting, Pa.) or F4/80 (eBioscience; San Diego, Calif.) antibody followed by a Texas-red conjugated donkey-anti-rat IgG secondary antibody (Jackson Immunoresearch). CD31 (PECAM-1) and CD106 (VCAM-1) were detected by FITC conjugated rat anti-mouse CD31 or CD106 (Biolegend; San Diego, Calif.) antibodies. Each experiment contained serial sections stained with the appropriate isotype control antibodies. All slides were mounted with ProLong Gold (Invitrogen). Images were obtained at room temperature using a Nikon Eclipse 80i microscope equipped with a CoolSnap CF camera (Photometrics) and analyzed using Metavue software (Molecular Devices). The fluorescence was semi-quantitated using Image J software (NIH) using the fluorescent area fraction after setting threshold for each experiment. The average of the isotype control was subtracted from each photo.

[3] = tested on: PGE2; experiment: Intestinal IR, ex vivo PGE2 generation; design: key to PGE2 Production: + indicates significant difference from Sham treated mice; − indicates not significantly different from C57B1/6 sham treated mice; +/− indicates no significant difference from either C57B1/6 mice subjected to either Sham or IR; settings: for IR-induced intestinal PGE2 production: C57Bl/6 mice, peptide 40 μM prior to IR
Protocol: C57Bl/6 and Rag-1^−/− mice were subjected to ischemia followed by reperfusion similar to previously described studies (Moses, T. et al., J. Leukoc. Biol. 86:971-980 (2009)). Briefly, ketamine (16 mg/kg) and xylazine (80 mg/kg) were used to anesthetize the mice. Buprenorphine (0.06 mg/kg) was then administered for pain. A midline laparotomy was performed to expose the abdominal cavity of the mice, which were then allowed to equilibrate for 30 min. Body temperature was maintained at 37° C. using a water-circulating heat pad. Placing a warm, saline moistened piece of gauze over the abdominal cavity prevented peritoneal desiccation. […] Ischemia was noted by the intestine changing from a pink color to a gray color. After 30 min of ischemia, the clamp was removed and the intestines were allowed to reperfuse for 5, 10, 15, or 120 min. […] Peptides 296, 305, and 296Cys to Ser were dissolved in N. Saline (0.9% NaCl) and injected i.v. in 100-μL volumes. Peptides 100 and 181 were dissolved in DMSO prior to diluting 1/100 in N. Saline. Additional mice received peptides prior to Sham treatment.
(§2) Ex vivo generation of eicosanoids by mid-jejunal tissue was determined. Immediately after collection, a 2-cm intestinal section from each mouse was minced, washed, resuspended in 37° C. oxygenated Tyrode's buffer (Sigma-Aldrich; St. Louis, Mo.), incubated at 37° C. for 20 minutes, and the supernatant collected. PGE2 and LTB4 concentrations were determined using enzyme immunoassay kits (Cayman Chemical; Ann Arbor, Mich.). IL-6 and IL-12 concentrations were determined using a Milliplex MAP immunoassay kit (Millipore) and read on a Milliplex Analyzer (Millipore). All eicosanoid and cytokine concentrations were standardized to the total tissue protein content.
(§3) Total peroxidase, LTB4, PGE2, IL-6, IL-12p40, and IL-12p70 concentrations were determined using the procedures described in Example 1.

[4] = tested on: LTB4; experiment: Intestinal IR, ex vivo LTB4 generation; design: key to LTB4 Production: + indicates significant difference from Sham treated mice; − indicates not significantly different from C57B1/6 sham treated mice; +/− indicates no significant difference from either C57B1/6 mice subjected to either Sham or IR; settings: for LTB4 Production: C57Bl/6 mice subjected to IR, peptide 40 μM i.v. 5 min prior to artery occlusion; for IR-induced intestinal LTB4 production: C57Bl/6 mice, peptide 40 μM prior to IR
Protocol: as §1, §2, §3

[5] = C57Bl/6 mice subjected to IR, peptide 40 μM i.v. 5 min prior to artery occlusion
[6] = 10 μM peptide 5 min prior to IR
[7] = administered at 15 min post-reperfusion

Row | Substance | expression of adhesion molecule VCAM after IR [1] | F4/80 Deposition [2] | expression of the mature macrophage marker (F4/80) after IR [2] | PGE2 Production [3, 5] | IR-induced intestinal PGE2 production [3] | LTB4 Production [4] | IR-induced intestinal LTB4 production [4] | PGE2 Production [3, 6] | PGE2 Production [3, 7]
1 | H-IHFYCKNKEKKCSYTVEAHCRDGTI-OH (cysteine pairing not given here) [peptide 296] | inhibited | − | reduced macrophage to Sham levels | − | attenuated; also recorded: blocked | − | attenuated; also recorded: blocked |  | 
2 | H-IHFYSKNKEKKSSYTVEAHSRDGTI-OH [peptide 296Cys-Ser] | inhibited | − | reduced macrophage to Sham levels | − | attenuated; also recorded: blocked | − | attenuated; also recorded: blocked | optimally attenuated | attenuated
3 | H-IPSCFKEHSSLAFWKTDASELTPC-NH2 (cysteine pairing not given here) [peptide 322, 18] |  | + | increased in response to IR | + | sustained inflammation similar to untreated mice | + | sustained inflammation similar to untreated mice |  | 
4 | H-KKCSYTVEAHCRDGTIEIPSCFKEHS-OH (cysteine pairing not given here) [peptide 305, 10] | inhibited | − | reduced macrophage to Sham levels | +/− | did not attenuate; also recorded: but not eicosanoid production | + | did not attenuate | optimally attenuated | attenuated
5 | H-KNISFACNPGFFLNG-NH2 [peptide 100, 16, reference compound] |  | + | reduced macrophage to Sham levels | + | sustained inflammation similar to untreated mice | + | sustained inflammation similar to untreated mice |  | 
